Measured values from patent US8703197B2, “Branched polyamines for delivery of biologically active materials” (International Business Machines Corporation, priority 2012, dated 2014).

System: HeLa cells
Experiment: MTT cytotoxicity of polymer/gene complexes in HeLa cells
Assay type: cell-based, human
Method: The cytotoxicity of the modified bPEI-25/gene complexes and modified bPEI-25/siRNA complexes was studied using the standard MTT assay protocol on HepG2, HeLa and SK-OV-3 cells. The GFP plasmid was used for complex formation and treatment of HepG2 and HeLa cells, while the luciferase plasmid was used for complex formation and treatment of SK-OV-3 cells.
HepG2, HeLa and SK-OV-3 cells were seeded onto 96-well plates at densities of 10000 cells, 5000 and 16000 cells per well, respectively, and allowed to grow to 60% to 70% confluency before treatment. Polymer/gene or polymer/siRNA complexes at various N/P ratios were prepared in water as described above. The cells in each well were then incubated with growth medium comprising 10 microliters of polymer/nucleic acid complexes and 100 microliters of fresh medium for 4 hours at 37° C. Following incubation, the medium was replaced with fresh growth medium and incubated further for 68 hours. […] A 100 microliter aliquot from each well was then transferred to a new 96-well plate for determination of absorbance using a microplate spectrophotometer at wavelengths of 550 nm and 690 nm. Relative cell viability was expressed as [A550−A690)sample/(A550−A690)control]×100%. Data were expressed as mean±standard deviations of at least eight replicates per N/P ratio.

**Q.** How did the “Maximum N/P ratio for Cell Viability ≧80%, HeLa Max N/P” value turn out when Branched Polyethylenimine [bPEI-25] was run?
**A.** The value was 20.
